Laboratory results reported in patent publication US10869904B2, “Pharmaceutical composition for preventing or treating respiratory disease comprising extract of Justicia procumbens L” (DONG WHA PHARM. CO., LTD., priority 2016, dated 2020).
Like-named read-outs stand apart in the source and are kept apart here. Marks after values point to notes of the source that are not given here.

What was measured:
splenocytes = test: Inhibition of Concanavalin A-induced splenocyte proliferation (CCK8); assay type: cell-based, Balb/c mice; conditions: for inhibition of splenocyte proliferation (in words): Tables 4 to 6
Procedure: (§1) The isolated splenocytes were diluted in RPMI medium (containing 10% fetal bovine serum (FBS) and antibiotics (100 U/mL penicillin and 100 μg/mL streptomycin)) at a concentration of 5×10^6 cells/nit, and the cell dilution was dispended in a 24-well plate in an amount of 500 μl/well and in a 96-well plate in an amount of 100 μl/well. The plates were incubated in a 5% CO2 incubator at 37° C. for 48 hours. […] The medium of the 24-well plate was used to measure the degree of secretion of Th2 inflammatory cytokines (IL4 and IL5), and the 96-well plate was used to measure the degree of cell proliferation. First, in order to measure Th2 cytokines, the medium in the 24-well plate was collected and centrifuged at 800×g for 5 minutes, and the supernatant was collected. 100 μl of the supernatant per well was used in IL4 or IL5 enzyme-linked immunosorbent assay (ELISA, Komabiotech Inc.) to measure the degree of secretion of these cytokines. In order to measure the degree of cell proliferation, […] of CCK8 (cell counting kit 8, Donjindo) solution was added to each well of the 96-well plate, and after 4 hours, the absorbance value was measured. The degree of inhibition of spleen cell proliferation by each drug and the degree of inhibition of Th2 cytokine secretion by each drug were calculated using Equation 2 below. For drug synergistic effects, a linear equation was constructed using the concentrations of drugs administered alone as x-coordinates and using drug concentration-dependent inhibition as y-coordinates. Using this linear equation, the concentrations of drugs administered alone, which correspond to inhibition achieved when administered in combination, were calculated, and combination index (CI) was calculated using Equation 3 below. A CI value of less than 1 indicates a synergistic effect, a CI value of 1 indicates an additive effect, and a CI value of more than 1 indicates an antagonistic effect (Liang Zhao et. al., Clinical Cancer Research, 10, 7994-8004, 2004). […]

IL4 = test: Inhibition of IL4 secretion by Concanavalin A-treated splenocytes (ELISA); assay type: cell-based, Balb/c mice; conditions: for inhibition of IL4 secretion (in words): text on Tables 7 and 8
Procedure: as §1

IL5 = test: Inhibition of IL5 secretion by Concanavalin A-treated splenocytes (ELISA); assay type: cell-based, Balb/c mice; conditions: for inhibition of IL5 secretion (in words): text on Tables 7 and 8
Procedure: as §1

[1] = test system: Neutrophilic Asthma Balb/c Mouse Models; test: Asthma inhibitory effect in neutrophilic asthma model (ovalbumin + LPS): lung lavage fluid and lung tissue; assay type: in vivo, Balb/c mice; conditions: oral
Procedure: On 0 and 7 days after 1 week of acclimation, each of the mice was systematically sensitized by intranasally administering 75 μg of ovalbumin and 10 μg of lipopolysaccharide (LPS). 20, 50 or 100 mg/kg of the Justicia procumbens L. prepared in Preparation Example 3 or a positive control (10 mg/kg of dexamethasone and 1 mg/kg of montelukast) was administered orally to the mice On days 14, 15, 21, 22, 28, 29, 35, 36 and 37. One hour after administration, 50 μg of ovalbumin was administered intranasally to the mice. 24 hours after final sensitization (day 37), lung lavage fluid was obtained through tracheostomy, and the lung tissue was isolated. The collected lung lavage fluid was centrifuged at 3000 rpm […], and the supernatant was used to measure physiologically active substances (IL-4, IL-5, and IFN-γ), and the pellets were used to measure the number of inflammatory cells. The physiologically active substances (interleukin-4 (IL-4), interleukin-5 (IL-5), and interferon-gamma (IFN-γ)) in the isolated lung lavage fluid were measured using an enzyme-linked immunosorbent assay (ELISA, IL-4: Komabiotech #K0331144, IL-5: R&D system #M5000, IFN-γ: Komabiotech #K0331138) corresponding to each substance. In addition, the lung lavage fluid pellets were re-dissolved in 0.5 mL of phosphate buffered saline, and 0.1 mL of the solution was added to each well of a 96-well plate and centrifuged at 800 rpm for 5 minutes to attach the cells to the bottom (3 wells per sample). Then, each sample was stained with Diff Quik staining solution (Sysmex), and photographed with a microscope at 2-6 random sites. About 200 cells per sample were counted and the percentage (%) of inflammatory cells of each sample was calculated. The total number of inflammatory cells was measured with a microscope using a hematocytometer, and the number of eosinophils and the number of neutrophils were calculated using the percentage (%) of inflammatory cells of each sample. Staining of the lung tissue was performed in the same manner as described in Example 5 above. Statistical processing was performed using an SPSS program, and a Levene test was performed for a test for equal variance, and significance was tested by one-way analysis (ANOVA).

[2] = Table 8, Concentration (mM) 0.25
[3] = Table 8, Concentration (mM) 0.5
[4] = Mus musculus, Splenocyte, Table 5, 0.5 μM, read-out: Inhibition of splenocyte proliferation (%, n = 3, Mean ± SD)
[5] = Table 8, Concentration (mM) 0.2

Row | Compound | Inhibition of splenocyte proliferation (%, n = 3, Mean ± SD) (splenocytes; Table 5, 0.5 μM) | inhibition of splenocyte proliferation (in words) (splenocytes) | Inhibition of IL4 secretion (%, n = 2, Mean ± SD) (IL4; Table 7, 1 μM) | inhibition of IL4 secretion (in words) (IL4) | Inhibition of IL5 secretion (%, n = 2, Mean ± SD) (IL5; Table 7, 1 μM) | inhibition of IL5 secretion (in words) (IL5) | inhibition at 0.5 µM (splenocytes; [4]) | Inhibition of splenocyte proliferation (%, n = 3, Mean ± SD) (splenocytes; Table 5, 5 μM) | Inhibition of splenocyte proliferation (%, n = 3, Mean ± SD) (splenocytes; Table 6, 1 μM) | Inhibition of splenocyte proliferation (%, n = 3, Mean ± SD) (splenocytes; Table 6, 5 μM) | Inhibition of IL4 secretion (%, n = 2, Mean ± SD) (IL4; Table 7, 5 μM) | Inhibition of IL4 secretion (%, n = 2, Mean ± SD) (IL4; Table 8, Concentration (mM) 1) | Inhibition of IL4 secretion (%, n = 2, Mean ± SD) (IL4; Table 8, Concentration (mM) 5) | Inhibition of IL5 secretion (%, n = 2, Mean ± SD) (IL5; Table 7, 5 μM) | Inhibition of IL5 secretion (%, n = 2, Mean ± SD) (IL5; Table 8, Concentration (mM) 1) | Inhibition of IL5 secretion (%, n = 2, Mean ± SD) (IL5; Table 8, Concentration (mM) 5) | also measured
1 | COc1cc2cc3c(c(-c4ccc5c(c4)OCO5)c2cc1OC)C(=O)OC3 [Justicidin B, justicidin B] | 64.3 ± 0.50% | high inhibitory activities | 78.2 ± 0.01% | inhibited the secretion of IL4 and IL5 | 84.4 ± 0.00% | inhibited the secretion of IL4 and IL5 | – | – | – | – | – | – | – | – | – | – | Inhibition of splenocyte proliferation (%, n = 3, Mean ± SD) (splenocytes; Table 5, 0.25 μM): 14.2 ± 1.43%; Inhibition of splenocyte proliferation (%, n = 3, Mean ± SD) (splenocytes; Table 6, 0.25 μM): 72.5 ± 2.66%; Inhibition of splenocyte proliferation (%, n = 3, Mean ± SD) (splenocytes; Table 6, 0.5 μM): 90.8 ± 0.94%; Inhibition of IL4 secretion (%, n = 2, Mean ± SD) (IL4; Table 7, 0.5 μM): 35.9 ± 0.01%; Inhibition of IL4 secretion (%, n = 2, Mean ± SD) (IL4; [2]): 81.6 ± 0.02%; Inhibition of IL4 secretion (%, n = 2, Mean ± SD) (IL4; [3]): 87.6 ± 0.02%; Inhibition of IL5 secretion (%, n = 2, Mean ± SD) (IL5; Table 7, 0.5 μM): 55.8 ± 0.01%; Inhibition of IL5 secretion (%, n = 2, Mean ± SD) (IL5; [2]): 41.9 ± 0.04%; Inhibition of IL5 secretion (%, n = 2, Mean ± SD) (IL5; [3]): 66.8 ± 0.10%
2 | CC(C)(O)c1ccccc1CC[C@@H](SCC1(CC(=O)O)CC1)c1cccc(/C=C/c2ccc3ccc(Cl)cc3n2)c1 [Montelukast, montelukast] | – | – | – | – | – | – | 40.2 ± 2.64% | – | – | – | – | – | – | – | – | – | inhibition at 10 µM (splenocytes; Mus musculus, Splenocyte, Table 4, 10 μM, read-out: Inhibition of splenocyte proliferation (n = 3, Mean ± SD)): 44.1 ± 4.34%; inhibition at 10 µM (IL4; Mus musculus, Splenocyte, Table 7, 10 μM, read-out: Inhibition of IL4 secretion (%, n = 2, Mean ± SD)): -42.6 ± 0.08%; inhibition at 10 µM (IL5; Mus musculus, Splenocyte, Table 7, 10 μM, read-out: Inhibition of IL5 secretion (%, n = 2, Mean ± SD)): 70.2 ± 0.01%; Epithelium thickness (μm), n = 5, Mean ± S.E. ([1]; 10 mg/kg): 25.5 ± 1.64 μm; Lung lavage fluid_IFN-γ (pg/mL), n = 5, Mean ± S.E. ([1]; 10 mg/kg): 32.2 ± 2.13## pg/mL; Lung lavage fluid_IL-4 (pg/mL), n = 5, Mean ± S.E. ([1]; 10 mg/kg): 96.9 ± 14.40## pg/mL; Lung lavage fluid_IL-5 (pg/mL), n = 5, Mean ± S.E. ([1]; 10 mg/kg): 194.4 ± 23.1## pg/mL; Lung lavage fluid_eosinophil number (×10^5), n = 5, Mean ± S.E. ([1]; 10 mg/kg): 0.7 ± 0.05## ×10^5; Lung lavage fluid_neutrophil number (×10^5), n = 5, Mean ± S.E. ([1]; 10 mg/kg): 1.5 ± 0.07## ×10^5; Lung lavage fluid_total inflammatory cell number (×10^5), n = 5, Mean ± S.E. ([1]; 10 mg/kg): 4.0 ± 0.25## ×10^5; Subepithelial smooth muscle thickness (μm), n = 5, Mean ± S.E. ([1]; 10 mg/kg): 10.7 ± 0.59 μm
3 | C[C@@H]1C[C@H]2[C@@H]3CCC4=CC(=O)C=C[C@]4(C)[C@@]3(F)[C@@H](O)C[C@]2(C)[C@@]1(O)C(=O)CO [Dexamethasone, dexamethasone] | – | – | – | – | – | – | 118.7 ± 0.21% | – | – | – | – | – | – | – | – | – | inhibition at 0.5 µM (splenocytes; Mus musculus, Splenocyte, Table 4, 0.5 μM, read-out: Inhibition of splenocyte proliferation (n = 3, Mean ± SD)): 110.3 ± 0.62%; inhibition at 0.2 µM (splenocytes; Mus musculus, Splenocyte, Table 6, 0.2 μM, read-out: Inhibition of splenocyte proliferation (%, n = 3, Mean ± SD)): 94.1 ± 1.8%; inhibition at 0.5 µM (IL4; Mus musculus, Splenocyte, Table 7, 0.5 μM, read-out: Inhibition of IL4 secretion (%, n = 2, Mean ± SD)): 100%; Inhibition of IL4 secretion (%, n = 2, Mean ± SD) (IL4; [5]): 97.8 ± 0.00%; inhibition at 0.5 µM (IL5; Mus musculus, Splenocyte, Table 7, 0.5 μM, read-out: Inhibition of IL5 secretion (%, n = 2, Mean ± SD)): 103%; Inhibition of IL5 secretion (%, n = 2, Mean ± SD) (IL5; [5]): 98.9 ± 0.01%; Epithelium thickness (μm), n = 5, Mean ± S.E. ([1]; 1 mg/kg): 5.0 ± 0.38##, $$ μm; Lung lavage fluid_IFN-γ (pg/mL), n = 5, Mean ± S.E. ([1]; 1 mg/kg): 1.3 ± 0.61##, $$ pg/mL; Lung lavage fluid_IL-4 (pg/mL), n = 5, Mean ± S.E. ([1]; 1 mg/kg): 32.1 ± 9.51## pg/mL; Lung lavage fluid_IL-5 (pg/mL), n = 5, Mean ± S.E. ([1]; 1 mg/kg): 53.0 ± 13.59##, $$ pg/mL; Lung lavage fluid_eosinophil number (×10^5), n = 5, Mean ± S.E. ([1]; 1 mg/kg): 0.1 ± 0.01## ×10^5; Lung lavage fluid_neutrophil number (×10^5), n = 5, Mean ± S.E. ([1]; 1 mg/kg): 0.2 ± 0.02## ×10^5; Lung lavage fluid_total inflammatory cell number (×10^5), n = 5, Mean ± S.E. ([1]; 1 mg/kg): 1.3 ± 0.07## ×10^5; Subepithelial smooth muscle thickness (μm), n = 5, Mean ± S.E. ([1]; 1 mg/kg): 2.7 ± 0.35 μm
4 | phyllamyricin C | 0.9 ± 2.86% | exhibited the effect of inhibiting splenocyte proliferation | 9.8 ± 0.05% | inhibited the secretion of IL4 and IL5 | 22.9 ± 0.01% | inhibited the secretion of IL4 and IL5 | – | 18.8 ± 2.82% | 19.0 ± 18.44% | 25.0 ± 11.37% | 14.4 ± 0.01% | 11.8 ± 0.01% | 51.5 ± 0.11% | 67.9 ± 0.01% | 0.5 ± 0.05% | 31.6 ± 0.08% | –
5 | COc1cc2c(OC)c3c(c(-c4ccc5c(c4)OCO5)c2cc1OC)COC3=O [Justicidin C, justicidin C] | −3.6 ± 4.00% | exhibited the effect of inhibiting splenocyte proliferation | −14.1 ± 0.05% | inhibited the secretion of IL4 and IL5 | 39.8 ± 0.03% | inhibited the secretion of IL4 and IL5 | – | 8.4 ± 3.20% | 6.7 ± 15.08% | 31.7 ± 12.81% | 26.1 ± 0.04% | 25.3 ± 0.15% | 51.7 ± 0.02% | 36.4 ± 0.02% | 16.9 ± 0.06% | 26.2 ± 0.00% | –
6 | COc1cc2c(OC)c3c(c(-c4ccc5c(c4)OCO5)c2cc1OC)C(=O)OC3 [Justicidin A, justicidin A] | −2.7 ± 1.84% | high inhibitory activities | −10.6 ± 0.08% | inhibited the secretion of IL4 and IL5 | 25.4 ± 0.01% | inhibited the secretion of IL4 and IL5 | – | 85.0 ± 2.43% | 43.4 ± 1.63% | 99.0 ± 2.35% | 54.7 ± 0.02% | 71.6 ± 0.02% | 86.4 ± 0.04% | 56.7 ± 0.00% | 11.7 ± 0.27% | 25.7 ± 0.08% | Inhibition of splenocyte proliferation (%, n = 3, Mean ± SD) (splenocytes; Table 5, 1 μM): 9.4 ± 4.36%; Inhibition of splenocyte proliferation (%, n = 3, Mean ± SD) (splenocytes; Table 5, 2.5 μM): 56.4 ± 18.80%
